The values that follow come from paper PMC8155809 (The Journal of General Physiology, 2021).

Like-named read-outs stand apart in the source and are kept apart here.

One series has as its target T1, human TREK-2 (Homo sapiens, UniProt P57789).
T1 construct: expressed in transfected cells; host or cells: Xenopus laevis oocytes injected with in vitro transcribed mRNA (pFAW vector)
T1 sequence (P57789 1-543 isoform P57789-4): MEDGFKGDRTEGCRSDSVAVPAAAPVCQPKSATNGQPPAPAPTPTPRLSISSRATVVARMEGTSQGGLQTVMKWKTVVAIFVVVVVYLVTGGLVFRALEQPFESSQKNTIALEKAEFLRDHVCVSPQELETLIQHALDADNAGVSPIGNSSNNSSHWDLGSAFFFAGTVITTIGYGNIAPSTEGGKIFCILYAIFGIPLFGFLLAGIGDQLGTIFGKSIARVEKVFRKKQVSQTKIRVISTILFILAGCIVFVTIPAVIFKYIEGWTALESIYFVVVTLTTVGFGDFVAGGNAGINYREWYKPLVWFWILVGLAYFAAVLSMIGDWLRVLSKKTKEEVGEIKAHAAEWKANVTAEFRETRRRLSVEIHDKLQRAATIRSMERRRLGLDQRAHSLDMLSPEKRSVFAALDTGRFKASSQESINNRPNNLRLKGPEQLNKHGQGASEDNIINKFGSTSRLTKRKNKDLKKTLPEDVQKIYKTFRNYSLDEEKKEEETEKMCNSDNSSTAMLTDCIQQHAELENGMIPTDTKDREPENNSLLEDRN
The experiment in a line: Macroscopic TREK-2 currents in giant excised patches from Xenopus oocytes. Type of series: cell-based. The procedure:
(§1) Full-length human TREK-2 isoform 3 (NCBI accession no. NP_612191) was used throughout this study and was subcloned into the pFAW vector for expression in oocytes. The truncated construct used to generate protein (TREK-2ΔN/ΔC) is identical to that used previously to obtain crystal structures ([Dong et al., 2015]); it contains a deletion of 71 residues at the N terminus and 213 residues at the C terminus. […] Desamino chloro-fluoxetine (Toronto Research Chemicals) was dissolved in chloroform and diluted to working concentrations on the day of experimenting (maximum final concentration was 0.01%).
Oocytes were prepared for injection of mRNA by collagenase digestion followed by manual defolliculation and stored in ND96 solution that contained (in mM) 96 NaCl, 2 KCl, 1.8 CaCl2, 1 MgCl2, and 10 HEPES (pH 7.4) and was supplemented with 2.5 mM sodium pyruvate 50 µg/ml gentamycin, 50 µg/ml tetracycline, 50 µg/ml ciprofloxacin, and 100 µg/ml amikacin. Cells were injected with 1–4 ng mRNA up to 4 d after isolation. In vitro transcription of mRNA was done using the Amplicap SP6 Kit (Cambio). Experiments were performed 12–24 h after injection at room temperature (22°C unless otherwise indicated). For measurement and comparison of basal whole-cell currents, oocytes were injected with 4 ng RNA and recorded exactly 24 h after injection.
(§2) For currents recorded in Xenopus laevis oocytes, giant-patch electrodes were pulled from thick-walled borosilicate glass and polished to give pipette resistances of ∼0.3–0.5 MΩ when filled with patch solution. Pipette solution contained (in mM) 116 NMDG, 4 KCl, 1 MgCl2, 3.6 CaCl2, and 10 HEPES (pH 7.4), while the bath solution contained (in mM) 120 KCl, 1 NaCl, 2 EGTA, and 10 HEPES (pH 7.3). Patches were perfused via a gravity-flow perfusion system and a HEKA EPC 10 USB single computer–controlled amplifier was used and currents recorded using a Patchmaster v2 × 90.5 (HEKA Electronics), filtered at 1 kHz, and sampled at 10 kHz. For currents recorded in HEK293 cells, patch electrodes were pulled from thick-walled borosilicate glass and polished to give pipette resistances of ∼3–5 MΩ when filled with patch solution. The currents were recorded from excised patches with both intracellular and extracellular solution containing 200 mM KCl and 10 mM HEPES (pH 6.0 with KOH). Patches were perfused via a gravity-flow perfusion system. Data were acquired with pClamp and recorded using an Axopatch 200B (Molecular Devices), filtered at 5 kHz, and sampled at 200 kHz. Single-channel currents were analyzed in an identical manner to those obtained from bilayers (see above).
The macroscopic concentration–inhibition relationships in Figs. 1 and 2 were fitted with a modified Hill equation:
I/I0=a+1−a/1+([X]/IC50)^h, (1) where I and IO are the currents in the presence and absence of inhibitor, respectively, [X] is the concentration of inhibitor, IC50 is the inhibitor concentration at which the inhibition is half maximal, h is the Hill coefficient, and a is the fraction of unblockable current; a = 0, except where indicated in the legend to Fig. 1.
The macroscopic concentration–activation relationships in Fig. 1 E were fitted with a modified Hill equation: I/I0=a+(1−a)([X]/IC50)^h/1+([X]/IC50)^h, (2) where I and IO are the currents in the presence and absence of agonist, respectively, [X] is the concentration of agonist, IC50 is the agonist concentration at which the activation is half maximal, h is the Hill coefficient, and a is the fraction of initial current.

Another series deals with T2, WT TREK-2 (Homo sapiens, UniProt P57789).
T2 construct: full-length WT TREK-2 channels, we examined its effects on the mean open time of TREK-2 channels expressed in HEK293 cells; expressed in transfected cells; host or cells: HEK293 cells, transient transfection with pcDNA3
T2 sequence (P57789 1-543 isoform P57789-4): T1 sequence (P57789 1-543 isoform P57789-4)
The series is described as follows: Single-channel recordings of WT TREK-2 in excised patches from HEK293 cells. It counts as cell-based. How it is done: as §1
HEK293 cells were cultured in DMEM (Sigma) containing 10% FBS (Life Technologies), 3 mM glucose, and 2 mM glutamine at 37°C in a humidified atmosphere of 5% CO2/[…] at 37°C. Cells were transiently transfected with 0.2 µg channel pcDNA3 per dish using FuGENE 6 according to the manufacturer’s instructions. Cells were used 1–2 d after transfection.
as §2

Series [1] can be described thus: Electrostriction measurement of membrane elasticity. The settings on record: 1–1,000 µM NFx. It counts as physicochemical. How it is done:
Membrane elasticity measurements were performed as described previously ([Vitovic et al., 2013]). Briefly, a 1 kHz sine wave with an amplitude of 100 mV was applied to the membrane using a wave generator (Rigol DG821; Rigol Technologies). Due to the nonlinear dependence of membrane capacitance on the voltage V [C = C0 (1 + αV^2)], where C0 is the capacitance at V = 0 and α is the electrostriction coefficient, a third current harmonic with frequency 3 kHz and amplitude A3 is generated in addition to the basic first current harmonic, A1 (frequency 1 kHz).

Where [2] appears, read: +40 mV, in the presence of 80 µM TPA.

For the molecule `NCCC(Oc1ccc(C(F)(F)F)cc1)c1ccccc1` (centres unmarked) [NFx, norfluoxetine], the “h (Hill coefficient), NFx inhibition” value on human TREK-2 (0 mV, Fig. S4) is 0.72; at human TREK-2 (+40 mV, Fig. S4), 0.74; on human TREK-2 (+40 mV, NFx on its own, Fig. 1E), 1.0; at human TREK-2 (setting [2]), 1.2; at human TREK-2 (+40 mV, in the presence of 100 mM TEA) it was 0.8; at human TREK-2 (+80 mV, Fig. S4), 0.79. Besides, the “h (Hill coefficient), NFx inhibition” value on human TREK-2 (NFx on its own, Fig. 2C) stood at 1.7; on human TREK-2 (in the presence of 50 µM ML335), 0.8; on human TREK-2 (in the presence of 1 mM 2-APB), 0.6. Also, the “a (fraction of unblockable current)” value at human TREK-2 (setting [2]) is recorded as 0.05. The IC50 – broadly, the concentration that inhibits the measured activity by half – on human TREK-2 (IC50, NFx inhibition of TREK-2 currents, +40 mV, NFx on its own, Fig. 1E) was 2700 nM; against human TREK-2 (IC50, NFx inhibition of macroscopic WT TREK-2 currents, 0 mV, Fig. S4), 4200 nM; at human TREK-2 (IC50, NFx inhibition of macroscopic WT TREK-2 currents, +40 mV, Fig. S4), 2000 nM; against human TREK-2 (IC50, NFx inhibition of macroscopic WT TREK-2 currents, +80 mV, Fig. S4), 1400 nM; on human TREK-2 (giant inside-out patches, physiological pH 7.4, NFx alone, read-out: IC50 for channel inhibition), approximately 3000 nM. At WT TREK-2 (10 µM NFx in the presence of 100 µM ML335, −40 mV), the “mean Po” value was 0.69 ± 0.2. Besides, on WT TREK-2 (10 µM NFx in the presence of 100 µM ML335 vs ML335 alone, −40 mV), the “amplitude ratio of γ” value is 1.00 ± 0.01. For the same molecule, the “reduction of τo (mean open time)” value at WT TREK-2 (10 µM NFx, Fig. S6) is approximately 30%. On WT TREK-2 (10 µM NFx, no further change in the presence of NFx, as in Fig. S6), the “reduction of Po of WT TREK-2 channel” value stood at 79 ± 0.05%. The “τo (mean open time)” value on WT TREK-2 (10 µM NFx, −10 mV) was 0.89 ms. For the same molecule, the “reduction in γ (single-channel current amplitude)” value on WT TREK-2 (10 µM, −40 mV (Fig. 6B)) was found to be 11 ± 7%. Further, the “reduction of channel Po” value on WT TREK-2 (10 µM, −40 mV (Fig. 6B)) is 70 ± 0.03%. The “effect on the modulus of elasticity (E⊥)” value in series [1] is reported as “no obvious effect”.
